{"source": "patent US20240342111A1", "about": "“ISOMER-SPECIFIC NEUROPROTECTIVE EFFECT OF NATURAL RESERVATROL” (priority 2021, published 2024)", "origin": "cited, not measured here", "system": "Ac-K56-H3", "conditions": "diabetes patients, 500 mg/day; cited from earlier work"}
{"smiles": "Oc1ccc(/C=C/c2cc(O)cc(O)c2)cc1", "note": "[trans-RSV, trans-resveratrol]", "values": [{"measurement": "levels of Ac-K56-H3 in PBMC", "value": "decreased levels of Ac-K56-H3"}]}
